Measured values reported in patent publication US9051271B2, “Substituted pyridine derivatives useful in the treatment of cancer” (United Arab Emirates University, priority 2012, dated 2015).
pIC50: −log10 of the molar value. Like-named read-outs stand apart in the source and are kept apart here.

Tests used:
MDA-MB-231 cells = test: Cell Titer-Glo Luminescent Cell Viability assay, breast cancer cells; assay type: cell-based, Human; details: half-maximal inhibition at 24 h
Protocol: (§1) Human breast cancer cells MDA-MB-231 and colorectal cancer cells HT29, were maintained in DMEM medium (Invitrogen, Cergy Pontoise, France). Human lung cancer cells NCI-H460-Luc2 (Caliper Life Sciences, US) (NSCLC) were maintained in RPMI 1640 (Hyclone Thermo Scientific, MA United States). All media were supplemented with antibiotics (penicillin 50.00 U/ml; streptomycin […]) (Invitrogen, Cergy Pontoise, France) and 10.00% fetal bovine serum (FBS, Biowest, Nouaille, France).
Cells were seeded in 96-well plates at a density of 5,000 cells/well. […] Control culture cells were treated with 0.10% DMSO.
(§2) The effect of the test compounds on cell viability was determined using a Cell Titer-Glo Luminescent Cell Viability assay (Promega Corporation, Madison, USA), based on quantification of ATP, which signals the presence of metabolically active cells. Luminescent signal was measured using GLOMAX Luminometer system. The data were presented as proportional viability (%) by comparing the treated group with the untreated cells, the viability of which is assumed to be 100%.
(§3) Inhibition rates ranged between 50.00 and 98.00% were recorded for all compounds at 100.00 μM concentration. The IC50 is the concentration at which half-maximal inhibition occurs at 24 h. Approximate IC50 value of 100.00 μM was obtained after 24.00 hours.
(§4) Exponentially growing MDA-MB-231, NCI-H460-Luc2 and HT29 cells were treated with vehicle (0.10% DMSO) and the indicated concentrations of investigated compounds. Viable cells were assayed as described in Materials and Methods. Exposure times of 24.00 and 48.00 hours were applied. All experiments were repeated at least three times.

NCI-H460-Luc2 cells = test: Cell Titer-Glo Luminescent Cell Viability assay, lung cancer cells; assay type: cell-based, Human; details: death of 50% of the cells, half-maximal inhibition at 24 h
Protocol: as §1
(§5) Cells were seeded in 96-well plates at a density of 5,000 cells/well. After 24.00 hours of seeding, resultant cells' arrays were treated for 24.00-48.00 hours with increasing concentrations of the test compounds (5.00-100.00 μM), in triplicates. Control culture cells were treated with 0.10% DMSO.
as §2
as §3, with “The effects of investigated compounds at concentrations 5.00-100.00 μM on MDA-MB-231, NCI-H460-Luc2 and HT29 cells were investigated after 24.00 and 48.00 hours exposures. […] Inhibition” for “Inhibition”
as §4

HT29 cells = test: Cell Titer-Glo Luminescent Cell Viability assay, colorectal cancer cells; assay type: cell-based, Human; details: death of 50% of the cells, half-maximal inhibition at 24 h, read-out: IC50 HT29 Colon Cancer
Protocol: as §1, §5, §2
as §3, with “The effects of investigated compounds at concentrations 5.00-100.00 μM on MDA-MB-231, NCI-H460-Luc2 and HT29 cells were investigated after 24.00 and 48.00 hours exposures. […] Inhibition” for “Inhibition”
as §4

SMILES | pIC50 (MDA-MB-231 cells; Homo sapiens, MDA-MB-231) | pIC50 (NCI-H460-Luc2 cells; Homo sapiens) | melting point [°C] | pIC50 (HT29 cells; Homo sapiens, HT-29) | pIC50 (MDA-MB-231 cells) | pIC50 (NCI-H460-Luc2 cells) | pIC50 (HT29 cells)
Cc1c(N=Nc2ccc(F)cc2)c(-c2ccccc2)[nH]c(=O)c1C#N [If, 3-Cyano-4-methyl-6-phenyl-5-(4′-fluorophenylazo)-pyridine-2(1H)-one] | 4.12 | 4.52 | 252 | 4.03 |  |  | 
Cc1[nH]c(=O)c(C#N)c(C)c1N=Nc1ccc([N+](=O)[O-])cc1 [Compound Ig, 3-Cyano-4,6-dimethyl-5-(4′-nitrorthenylazo)-pyridine-2(1H)-one] |  |  |  |  | 4.14 | 4.53 | 4.41
Cc1c(N=Nc2ccc([N+](=O)[O-])cc2)c(-c2ccccc2)[nH]c(=O)c1C#N [Ih, 3-Cyano-4-methyl-6-phenyl-5-(4′-nitronthenylazo)-pyridine-2(1H)-one] |  |  |  |  | 3.77 | 4.51 | 4.53
Cc1c(N=Nc2ccccc2F)c(-c2ccccc2)[nH]c(=O)c1C#N [Id, 3-Cyano-4-methyl-6-phenyl-5-(2′-fluorophenylazo)-pyridine-2(1H)-one] |  |  | 225 |  |  |  | 
Cc1[nH]c(=O)c(C#N)c(C)c1N=Nc1ccccc1F [Ia, 3-Cyano-4,6-dimethyl-5-(2′-fluorophenylazo)-pyridine-2(1H)-one] | 3.32 |  | 257 |  |  |  | 
Cc1[nH]c(=O)c(C#N)c(C)c1N=Nc1ccc(F)cc1 [Ic, 3-Cyano-4,6-dimethyl-5-(4′-fluorophenylazo)-pyridine-2(1H)-one] | 3.67 |  | 272 |  |  |  | 
Cc1[nH]c(=O)c(C#N)c(C)c1N=Nc1cccc(C(F)(F)F)c1 [Ib, 3-Cyano-4,6-dimethyl-5-(3′-trifluoromethylphenylazo)-pyridine-2(1H)-one] | 3.57 |  | 265 |  |  |  | 
Cc1c(N=Nc2cccc(C(F)(F)F)c2)c(-c2ccccc2)[nH]c(=O)c1C#N [Ie, 3-Cyano-4-methyl-6-phenyl-5-(3′-trifluoromethylphenylazo)-pyridine-2(1H)-one] | 4.04 | 4.44 | 237 | 4.19 |  |  | 
